In general, IC50 refers to the midpoint of a concentration-inhibition curve. Read a low IC50 as inhibition by little substance.

Here are results for 21 molecules from patent US20220144839A1, “INDOLE AHR INHIBITORS AND USES THEREOF” (Ikena Oncology, Inc., priority 2018, published 2022).

SMILES strings stand for the structures. A value given as a limit tells only on which side of the number the result lay.

This experiment addresses T1, AHR (UniProt P35869).
T1 sequence (P35869 1-848): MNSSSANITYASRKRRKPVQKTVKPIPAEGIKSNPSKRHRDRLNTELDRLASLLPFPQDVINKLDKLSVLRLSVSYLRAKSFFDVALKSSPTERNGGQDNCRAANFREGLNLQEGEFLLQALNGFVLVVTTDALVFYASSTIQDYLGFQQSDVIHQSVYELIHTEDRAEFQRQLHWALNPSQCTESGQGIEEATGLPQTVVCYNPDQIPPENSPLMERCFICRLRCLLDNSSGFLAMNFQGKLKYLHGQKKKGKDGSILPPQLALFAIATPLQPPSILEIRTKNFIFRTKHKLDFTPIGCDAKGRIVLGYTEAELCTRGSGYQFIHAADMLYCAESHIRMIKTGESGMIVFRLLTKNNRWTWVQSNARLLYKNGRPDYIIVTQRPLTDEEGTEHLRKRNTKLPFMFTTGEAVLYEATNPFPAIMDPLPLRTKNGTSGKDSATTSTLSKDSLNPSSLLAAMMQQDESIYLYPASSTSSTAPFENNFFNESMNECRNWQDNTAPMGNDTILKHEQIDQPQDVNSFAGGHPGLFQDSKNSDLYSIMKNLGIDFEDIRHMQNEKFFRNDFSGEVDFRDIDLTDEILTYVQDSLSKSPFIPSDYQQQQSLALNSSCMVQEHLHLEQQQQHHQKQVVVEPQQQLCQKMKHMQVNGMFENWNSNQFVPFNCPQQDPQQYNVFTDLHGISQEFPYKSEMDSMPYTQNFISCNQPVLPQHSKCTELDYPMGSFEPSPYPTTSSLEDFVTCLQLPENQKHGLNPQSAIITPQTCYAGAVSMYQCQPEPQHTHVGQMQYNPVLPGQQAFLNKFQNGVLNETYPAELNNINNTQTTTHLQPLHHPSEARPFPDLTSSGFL
As to the kind of experiment: DRE-Luciferase Reporter Assay (Alternate Method), Example 1B. Conditions: concentration which inhibits half of the luciferase activity induced by AHR activating ligand; DRE-luciferase reporter cell line. The experiment is classed as cell-based. Summed up:
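Murine (Hepa1-6, Hepa-1c1c7) or human (HepG2) cells carrying a stable or transient DRE-luciferase reporter, stimulated with an AHR agonist (e.g. TCDD, kynurenine, ITE, BNF, FICZ) plus compound at plating or after overnight culture at 37 °C. Luciferase read after 4, 15 or 24 h; IC50 as concentration halving agonist-only signal relative to no-ligand baseline.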
On to `CC(C)c1cnn2c(NCCCCO)nc(-c3cnsc3)nc12` [Compound I-54, 4-[(8-Isopropyl-2-isothiazol-4-yl-pyrazolo[1,5-a][1,3,5]triazin-4-yl)amino]butan-1-ol], for which the IC50 is greater than 1.5 µM. As for `CC(C)c1cnn2c(N[C@H]3Cc4cncnc4NC3=O)nc(-c3cncc(F)c3)nc12` [Compound I-55a], the 50% inhibitory concentration (IC50) was greater than 1.5 µM. In the case of `CC(C)c1cnn2c(N[C@@H]3Cc4cncnc4NC3=O)nc(-c3cncc(F)c3)nc12` [Compound I-55b, (6R)-6-[[2-(5-fluoro-3-pyridyl)-8-isopropyl-pyrazolo[1,5-a][1,3,5]triazin-4-yl]amino]-6,8-dihydro-5H-pyrido[2,3-d]pyrimidin-7-one] it was greater than 1.5 µM. In the case of `C[C@H](NC(=O)N1CCOCC1)c1cnn2c(N[C@@H]3CCc4[nH]c5ccccc5c4C3)nc(-c3cncc(F)c3)nc12` [Compound I-56a, N-[(1S)-1-[2-(5-Fluoro-3-pyridyl)-4-[[(3R)-2,3,4,9-tetrahydro-1H-carbazol-3-yl]amino]pyrazolo[1,5-a][1,3,5]triazin-8-yl]ethyl]morpholine-4-carboxamide] it was less than 0.5 µM; in that of `C[C@@H](NC(=O)N1CCOCC1)c1cnn2c(N[C@@H]3CCc4[nH]c5ccccc5c4C3)nc(-c3cncc(F)c3)nc12` [Compound I-56b, N-[(1R)-1-[2-(5-Fluoro-3-pyridyl)-4-[[(3R)-2,3,4,9-tetrahydro-1H-carbazol-3-yl]amino]pyrazolo[1,5-a][1,3,5]triazin-8-yl]ethyl]morpholine-4-carboxamide], less than 0.5 µM; in that of `CC(C)c1cnn2c(NCCc3cccnc3N)nc(-c3cncc(F)c3)nc12` [Compound I-58, N-[2-(2-Amino-3-pyridyl)ethyl]-2-(5-fluoro-3-pyridyl)-8-isopropyl-pyrazolo[1,5-a][1,3,5]triazin-4-amine], less than 0.5 µM. As for `[2H]C([2H])([2H])C(c1cnn2c(N[C@@H]3CCc4[nH]c5ccccc5c4C3)nc(-c3cncc(F)c3)nc12)C([2H])([2H])[2H]` [Compound I-59, (3R)—N-[2-(5-Fluoro-3-pyridyl)-8-[2,2,2-trideuterio-1-(trideuteriomethyl)ethyl]pyrazolo[1,5-a][1,3,5]triazin-4-yl]-2,3,4,9-tetrahydro-1H-carbazol-3-amine], the figure is less than 0.5 µM; as for `CC(C)c1cnn2c(N[C@H]3CNc4ncncc4C3)nc(-c3cncc(F)c3)nc12` [Compound I-60a, (6R)—N-[2-(5-Fluoro-3-pyridyl)-8-isopropyl-pyrazolo[1,5-a][1,3,5]triazin-4-yl]-5,6,7,8-tetrahydropyrido[2,3-d]pyrimidin-6-amine], greater than 1.5 µM; as for `CC(C)c1cnn2c(N[C@@H]3CNc4ncncc4C3)nc(-c3cncc(F)c3)nc12` [Compound I-60b, (6S)—N-[2-(5-fluoro-3-pyridyl)-8-isopropyl-pyrazolo[1,5-a][1,3,5]triazin-4-yl]-5,6,7,8-tetrahydropyrido[2,3-d]pyrimidin-6-amine], less than 0.5 µM. As for `C[C@H](NC(=O)N1CCN(C)CC1)c1cnn2c(N[C@@H]3CCc4[nH]c5ccccc5c4C3)nc(-c3cncc(F)c3)nc12` [Compound I-61a, N-[(1S)-1-[2-(5-Fluoro-3-pyridyl)-4-[[(3R)-2,3,4,9-tetrahydro-1H-carbazol-3-yl]amino]pyrazolo[1,5-a][1,3,5]triazin-8-yl]ethyl]-4-methyl-piperazine-1-carboxamide], the half-inhibitory concentration (IC50) was less than 0.5 µM. In the case of `C[C@@H](NC(=O)N1CCN(C)CC1)c1cnn2c(N[C@@H]3CCc4[nH]c5ccccc5c4C3)nc(-c3cncc(F)c3)nc12` [Compound I-61b, N-[(1R)-1-[2-(5-Fluoro-3-pyridyl)-4-[[(3R)-2,3,4,9-tetrahydro-1H-carbazol-3-yl]amino]pyrazolo[1,5-a][1,3,5]triazin-8-yl]ethyl]-4-methyl-piperazine-1-carboxamide] it was 0.5 to 1 µM; in that of `CC(C)c1cnn2c(N[C@H]3Cc4[nH]cnc4NC3=O)nc(-c3cncc(F)c3)nc12` [Compound I-62a, (6S)-6-[[2-(5-Fluoro-3-pyridyl)-8-isopropyl-pyrazolo[1,5-a][1,3,5]triazin-4-yl]amino]-1,4,6,7-tetrahydroimidazo[4,5-b]pyridin-5-one], greater than 1.5 µM. As for `CC(C)c1cnn2c(N[C@@H]3Cc4[nH]cnc4NC3=O)nc(-c3cncc(F)c3)nc12` [Compound I-62b, (6R)-6-[[2-(5-fluoro-3-pyridyl)-8-isopropyl-pyrazolo[1,5-a][1,3,5]triazin-4-yl]amino]-1,4,6,7-tetrahydroimidazo [4,5-b]pyridin-5-one], the figure is greater than 1.5 µM. As for `CC(C)c1cnn2c(N[C@@H]3CCc4c(ccnc4N)C3)nc(-c3cncc(F)c3)nc12` [Compound I-63a, (6R)—N6-[2-(5-Fluoro-3-pyridyl)-8-isopropyl-pyrazolo[1,5-a][1,3,5]triazin-4-yl]-5,6,7,8-tetrahydroisoquinoline-1,6-diamine], the figure is greater than 1.5 µM; as for `CC(C)c1cnn2c(N[C@H]3CCc4c(ccnc4N)C3)nc(-c3cncc(F)c3)nc12` [Compound I-63b, (6S)—N6-[2-(5-fluoro-3-pyridyl)-8-isopropyl-pyrazolo[1,5-a][1,3,5]triazin-4-yl]-5,6,7,8-tetrahydroisoquinoline-1,6-diamine], greater than 1.5 µM. On to `COC[C@H](C)c1cnn2c(N[C@@H]3CCc4[nH]c5ccccc5c4C3)nc(-c3cncc(F)c3)nc12` [Compound I-64a, (3R)—N-[2-(5-Fluoro-3-pyridyl)-8-[(1R)-2-methoxy-1-methyl-ethyl]pyrazolo[1,5-a][1,3,5]triazin-4-yl]-2,3,4,9-tetrahydro-1H-carbazol-3-amine], for which the IC50 is less than 0.5 µM.

Take `COC[C@@H](C)c1cnn2c(N[C@@H]3CCc4[nH]c5ccccc5c4C3)nc(-c3cncc(F)c3)nc12` [Compound I-64b, (3R)—N-[2-(5-fluoro-3-pyridyl)-8-[(1S)-2-methoxy-1-methyl-ethyl]pyrazolo[1,5-a][1,3,5]triazin-4-yl]-2,3,4,9-tetrahydro-1H-carbazol-3-amine]: the IC50 was less than 0.5 µM. In the case of `COCC[C@H](C)c1cnn2c(N[C@@H]3CCc4[nH]c5ccccc5c4C3)nc(-c3cncc(F)c3)nc12` [Compound I-65a, (3R)—N-[2-(5-Fluoro-3-pyridyl)-8-[(1S)-3-methoxy-1-methyl-propyl]pyrazolo[1,5-a][1,3,5]triazin-4-yl]-2,3,4,9-tetrahydro-1H-carbazol-3-amine] it was less than 0.5 µM. In the case of `COCC[C@@H](C)c1cnn2c(N[C@@H]3CCc4[nH]c5ccccc5c4C3)nc(-c3cncc(F)c3)nc12` [Compound I-65b, (3R)—N-[2-(5-fluoro-3-pyridyl)-8-[(1R)-3-methoxy-1-methyl-propyl]pyrazolo[1,5-a][1,3,5]triazin-4-yl]-2,3,4,9-tetrahydro-1H-carbazol-3-amine] it was less than 0.5 µM; in that of `CC(C)c1cnn2c(N[C@@H]3CCc4c(cc[nH]c4=O)C3)nc(-c3cncc(F)c3)nc12` [Compound I-66a, (6R)-6-[[2-(5-Fluoro-3-pyridyl)-8-isopropyl-pyrazolo[1,5-a][1,3,5]triazin-4-yl]amino]-5,6,7,8-tetrahydro-2H-isoquinolin-1-one], greater than 1.5 µM; in that of `CC(C)c1cnn2c(N[C@H]3CCc4c(cc[nH]c4=O)C3)nc(-c3cncc(F)c3)nc12` [Compound I-66b, (6S)-6-[[2-(5-fluoro-3-pyridyl)-8-isopropyl-pyrazolo[1,5-a][1,3,5]triazin-4-yl]amino]-5,6,7,8-tetrahydro-2H-isoquinolin-1-one], greater than 1.5 µM.
